The target in experiment [1] is T1, VEGFR3 cytoplasmic domain (Homo sapiens, UniProt P35916).
T1 construct: VEGFR3 cytoplasmic domain (amino acids 798-1298) was purchased as N-terminal GST-fusion protein; GST (N); purchased
Briefly: VEGFR3 biochemical assay (AlphaScreen). Conditions: GST-VEGFR3 cytoplasmic domain, 500 μM ATP (modified form: His-fusion, 1 μM ATP). On the procedure:
Compounds of the invention may be tested for in vitro activity in the following assay: A biotin labelled peptide is used as substrate (amino acid sequence: Biotin-[…]NH2). VEGFR3 cytoplasmic domain (amino acids 798-1298) was purchased as N-terminal GST-fusion protein (“the enzyme”). The 15 μL assay reactions are run in Greiner brand white 384-well low volume plates. All reactions contained 10 mM HEPES pH 7.4, 10 mM MgCl2, 0.01% (v/v) Tween-20, 50 μM Na3VO4, 0.01% (w/v) albumin from chicken egg white, 1 mM Dithiothreitol, 111 nM peptide substrate, 500 μM ATP, and 3.8 ng/reaction enzyme, with the enzyme being omitted from negative control reactions. Compounds were added in a volume of […] from dilution series prepared in DMSO, positive and negative control reactions receiving the same volume DMSO without compound. The plates were sealed with adhesive seals and incubated for 90 minutes at 30 degree Celsius. The reactions were stopped with the detection reagents added at the same time as follows: Product formation was quantified as amplified luminescence between PerkinElmer AlphaScreen™ beads, using Streptavidin-coated donor and anti-phosphotyrosine (P-Tyr-100) acceptor beads. To each reaction, 5 μL containing 10 mM HEPES pH 7.4, 25 mM NaCl, 100 mM EDTA, 0.01% (v/v) Tween-20, and 6.25 μg/mL of each bead type were added. Plates were incubated for 6 hours before being read on a PerkinElmer EnVision™ plate reader in HTS Alphascreen™ mode. IC50 values were obtained by calculating percent inhibition (% I) for each reaction relative to controls on the same plate (% I=(I-CN)/(CP-CN) where CN/CP are the averages of the negative/positive reactions, respectively), then fitting the % I data vs. compound concentration [I] to % I=(A+((B−A)/(1+((C/[I])̂D)))) where A is the lower asymptote, B is the upper asymptote, C is the IC50 value, and D is the slope factor.
The above assay was also run in a modified form in some cases (indicated below with *). In these cases, VEGFR3 cytoplasmic domain (amino acids 818-1177, lacking 949-1002 of UniProt accession number P35916) was expressed and purified as N-terminal Hexa-His-fusion protein (“the enzyme”), rather than using the N-terminal GST-fusion protein. The assay conditions were the same as above but with 1 μM ATP and 8 ng/reaction of the enzyme.

The target in experiment [2] is T2, VEGFR3 (Homo sapiens, UniProt P35916).
T2 construct: host or cells: HMVEC-dLyAD
T2 sequence (P35916 25-1363): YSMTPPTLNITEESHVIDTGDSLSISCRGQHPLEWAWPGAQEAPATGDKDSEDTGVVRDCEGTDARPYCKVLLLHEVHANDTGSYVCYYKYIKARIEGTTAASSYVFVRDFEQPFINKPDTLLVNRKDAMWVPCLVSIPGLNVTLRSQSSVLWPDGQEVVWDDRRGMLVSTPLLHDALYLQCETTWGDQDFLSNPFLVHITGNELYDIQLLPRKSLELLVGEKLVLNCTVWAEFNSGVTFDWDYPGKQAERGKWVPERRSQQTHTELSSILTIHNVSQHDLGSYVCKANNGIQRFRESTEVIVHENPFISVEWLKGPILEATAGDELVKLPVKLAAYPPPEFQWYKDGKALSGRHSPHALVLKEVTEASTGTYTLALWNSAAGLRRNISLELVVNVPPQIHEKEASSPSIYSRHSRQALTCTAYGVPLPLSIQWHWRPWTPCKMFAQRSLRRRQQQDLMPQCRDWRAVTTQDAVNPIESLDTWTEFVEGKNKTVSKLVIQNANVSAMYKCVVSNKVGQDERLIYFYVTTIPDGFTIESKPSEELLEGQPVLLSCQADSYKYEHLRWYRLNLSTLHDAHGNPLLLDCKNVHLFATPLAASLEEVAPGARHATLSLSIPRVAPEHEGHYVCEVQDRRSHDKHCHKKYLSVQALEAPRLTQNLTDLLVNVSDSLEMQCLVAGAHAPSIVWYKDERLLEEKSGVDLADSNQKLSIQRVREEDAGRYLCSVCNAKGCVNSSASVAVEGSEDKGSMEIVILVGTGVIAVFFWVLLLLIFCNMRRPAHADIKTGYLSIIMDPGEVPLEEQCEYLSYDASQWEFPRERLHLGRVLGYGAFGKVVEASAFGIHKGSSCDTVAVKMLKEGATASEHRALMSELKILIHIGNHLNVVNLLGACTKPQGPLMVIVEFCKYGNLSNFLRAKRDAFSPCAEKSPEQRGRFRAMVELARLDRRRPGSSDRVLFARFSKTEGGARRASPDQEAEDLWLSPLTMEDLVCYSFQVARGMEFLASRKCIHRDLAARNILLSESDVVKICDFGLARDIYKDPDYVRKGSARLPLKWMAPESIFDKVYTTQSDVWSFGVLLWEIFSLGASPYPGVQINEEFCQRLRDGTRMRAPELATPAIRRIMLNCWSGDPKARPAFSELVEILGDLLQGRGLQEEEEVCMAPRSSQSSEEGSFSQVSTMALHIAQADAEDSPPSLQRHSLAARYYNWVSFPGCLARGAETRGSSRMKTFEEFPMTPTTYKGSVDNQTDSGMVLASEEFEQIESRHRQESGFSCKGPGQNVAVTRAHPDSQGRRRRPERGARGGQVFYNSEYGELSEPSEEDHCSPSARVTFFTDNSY
Nature of the experiment: VEGFR3 Phospho ELISA assay in HMVEC-dLyAD cells, VEGFC stimulated. It is filed as cell-based. To be noted: 1 hour compound, 250 ng/mL VEGFC 10 minutes. On the procedure: Adult human dermal lymphatic microvascular endothelial cells (HMVEC-dLyAD) (Cat#CC-2810, Lonza) were seeded into clear-bottom, TC treated 12 well plates (Cat #665180, Greiner Bio-One) in EGM-2MV (Cat#CC-3202, Lonza) at 180,000 cells/well (volume 1 mL), and the plates incubated at 37° C. and 5% CO2 for 6 hours. The media was replaced with EBM-2 (Cat #CC-3156, Lonza)+0.1% BSA (Cat#A8412, Sigma) and cells incubated for a further period (overnight at 37° C. and 5% CO2).
96 well Maxisorp immuno plates (Cat #439454, Nunc) were coated with 100 μL of Total VEGFR3 capture antibody (Part #841888, Human Total VEGFR3/FLT4 ELISA Kit, Cat #DYC3491, R&D Systems), or Phospho VEGFR3 Capture antibody (Part #841885, Human Phospho VEGFR3/FLT4 ELISA Kit, Cat#DYC2724, R&D Systems). The plates were covered and incubated at room temperature overnight.
The coating antibody was flicked out and the plates washed three times with Wash Buffer (Phosphate buffered saline (137 mM NaCl, […], […], […], pH 7.2-7.4), 0.05% Tween 20). 300 μL of blocking buffer (5% v/v Tween 20, 5% w/v sucrose in PBS) was then added to wells and plate incubated for 2 hours at room temperature. Blocking solution is flicked out and plates washed three times and tapped dry.
Compound dilution series were prepared in EBM-2 (Cat #CC-3156, Lonza)+0.1% BSA (Cat#A8412, Sigma) with constant 0.1% DMSO concentration. 439 μL of sample or vehicle control was added to the cell monolayers. Cells are treated for 1 hour at 37° C. and 5% CO2. 250 ng/mL Recombinant human VEGFC (Cat #2179-VC, R & D Systems) added to wells and plates incubated for an additional 10 minutes at 37° C. and 5% CO2.
The media and compounds were removed and the cell monolayer washed once in Dulbecco's Phosphate Buffered Saline (Cat #21600-044, Invitrogen). 130 μL of Lysis buffer added to wells and cell lysate harvested and transferred to tubes and stored on ice. Complete lysis buffer was prepared by adding 10 μL Protease Inhibitor Cocktail (Cat #P8340, Sigma-Aldrich), 10 μL PMSF (Phenylmethanesulfonyl fluoride, Cat #P7626, Sigma-Aldrich, prepared as 500 mM DMSO stock) per 1 mL of Phosphosafe™ Extraction Reagent (Cat #71296, Merck).
The harvested samples were then diluted 1:2 in IC Diluent #18 (5% Tween 20/PBS) and 100 μL transferred to the Total and Phospho VEGFR3 coated, blocked and washed 96 well plates and incubated for 2 hours at room temperature. The plates were then washed three times in wash buffer as described above and tapped dry.
For detection of Total VEGFR3100 μL of Detection antibody (Total VEGFR3 Detection Antibody Part#841888 in Total VEGFR3 kit) diluted in IC Diluent #1 (1% w/v BSA (Cat #A7906, Sigma-Aldrich)/PBS) was added to wells and the plate incubated for 2 hours at room temperature. The plate was then washed three times in wash buffer and tapped dry. 100 μL of streptavidin-HPR diluted in IC diluent #1 Streptavidin-HRP, Part #890803 in Total VEGFR3 kit) was added to wells and incubated at room temperature for 20 minutes followed by washing as described above 100 μL Substrate solution (3,3′,5,5′-Tetramethylbenzidine (TMB) Liquid Substrate System for ELISA, Cat #T0440, Sigma-Aldrich) was added and the plate incubated for 20 minutes in the dark at room temperature followed by the addition of 50 μL stop solution (2 M H2SO4).
Total VEGFR3 levels were quantified using a Multiskan Ascent plate reader and Ascent software fitted with 450 nm filter.
For detection of Phospho VEGFR3, 100 μL of Detection antibody (Anti-Phospho-Tyrosine-HRP Detection Antibody, Part #841403 in Phospho VEGFR3 kit) was diluted in IC Diluent #1 (1% w/v BSA/PBS), added to the wells and the plate incubated for 2 hours at room temperature. The plate was then washed three times in wash buffer as described above and tapped dry. […]

The structures appear in SMILES notation.

T1 sequence (P35916 798-1298 isoform P35916-1): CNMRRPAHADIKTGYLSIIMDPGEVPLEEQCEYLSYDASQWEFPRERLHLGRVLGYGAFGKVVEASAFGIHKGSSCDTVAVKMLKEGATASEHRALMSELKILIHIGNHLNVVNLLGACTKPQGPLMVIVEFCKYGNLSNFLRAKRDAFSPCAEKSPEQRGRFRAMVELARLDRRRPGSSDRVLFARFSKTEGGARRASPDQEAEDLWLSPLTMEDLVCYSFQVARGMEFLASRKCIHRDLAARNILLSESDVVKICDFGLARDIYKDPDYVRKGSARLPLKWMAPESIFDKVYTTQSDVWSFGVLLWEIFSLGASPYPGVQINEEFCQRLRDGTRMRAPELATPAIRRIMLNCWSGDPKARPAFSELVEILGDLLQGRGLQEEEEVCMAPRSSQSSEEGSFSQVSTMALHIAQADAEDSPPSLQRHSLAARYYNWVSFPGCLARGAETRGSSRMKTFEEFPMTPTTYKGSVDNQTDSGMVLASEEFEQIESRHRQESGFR

On to `Cc1cnc(Nc2ccc(N3CCNCC3)cc2)nc1CCc1ccccc1CC(N)=O` [Compound 2, 2-(2-(2-(5-methyl-2-((4-(piperazin-1-yl)phenyl)amino)pyrimidin-4-yl)ethyl)phenyl)acetamide], for which the figures for the IC50 in experiment [1] and in experiment [2] were 39 nM and 121 nM, respectively.
Regarding `NCc1ccc(Nc2ncc(C(F)(F)F)c(CCc3ccccc3CC(N)=O)n2)cc1` [Compound 3, 2-(2-(2-(2-((4-(Aminomethyl)phenyl)amino)-5-(trifluoromethyl)pyrimidin-4-yl)ethyl)phenyl)acetamide], the 50% inhibitory concentration (IC50) (as a rule, the concentration needed to halve the response being measured) turned out to be 97 nM in experiment [1] and 156 nM in experiment [2].
Taken in the same sequence, the figures for `Cc1cnc(Nc2ccc(C3CCNCC3)nc2)nc1CCc1ccccc1CC(N)=O` [Compound 4, 2-(2-(2-(5-methyl-2-((6-(piperidin-4-yl)pyridin-3-yl)amino)pyrimidin-4-yl)ethyl)phenyl)acetamide] were 35 nM and 2220 nM.
For `Cc1cnc(Nc2ccc(C3CCN(C)CC3)nc2)nc1CCc1ccccc1CC(N)=O` [Compound 5, 2-(2-(2-(5-methyl-2-((6-(1-methylpiperidin-4-yl)pyridin-3-yl)amino)pyrimidin-4-yl)ethyl)phenyl)acetamide] the same measures were 28 nM and 210 nM.
For `NC(=O)Cc1ccccc1CCc1nc(Nc2ccc(C(=O)N3CCNCC3)cc2)ncc1C(F)(F)F` [Compound 6, 2-(2-(2-(2-((4-(piperazine-1-carbonyl)phenyl)amino)-5-(trifluoromethyl)pyrimidin-4-yl)ethyl)phenyl)acetamide] the same measures were 23 nM and 62 nM.
Take `Cc1cc(Nc2ncc(C(F)(F)F)c(CCc3ccccc3CC(N)=O)n2)ccc1C1CCNCC1` [Compound 11, 2-(2-(2-(2-((3-methyl-4-(piperidin-4-yl)phenyl)amino)-5-(trifluoromethyl)pyrimidin-4-yl)ethyl)phenyl)acetamide]: the IC50 in experiment [1] was found to be 26 nM; in experiment [2] it was 39 nM.
For `Cc1cc(Nc2ncc(C(F)(F)F)c(CCc3ccccc3CC(N)=O)n2)ccc1C1CCN(C)CC1` [Compound 12, 2-(2-(2-(2-((3-methyl-4-(1-methylpiperidin-4-yl)phenyl)amino)-5-(trifluoromethyl)pyrimidin-4-yl)ethyl)phenyl)acetamide], the IC50 in experiment [1] turned out to be 20 nM; in experiment [2], 116 nM.
For `Cc1cnc(Nc2ccc(C3CCNCC3)cc2)nc1CCc1ccccc1CC(N)=O` [Compound 16, 2-(2-(2-(5-methyl-2-((4-(piperidin-4-yl)phenyl)amino)pyrimidin-4-yl)ethyl)phenyl)acetamide] the same measures were 22 nM and 214 nM.
Take `CC(N)c1ccc(Nc2ncc(C(F)(F)F)c(CCc3ccccc3CC(N)=O)n2)cc1` (stereo not drawn) [Compound 18, 2-(2-(2-(2-(4-(1-aminoethyl)phenylamino)-5-(trifluoromethyl)pyrimidin-4-yl)ethyl)phenyl)acetamide]: the results for the IC50 in experiment [1] and in experiment [2] were 46 nM and 18 nM, respectively.
For `Cc1cnc(Nc2cccnc2)nc1CCc1ccccc1CC(N)=O` [Compound 24, 2-(2-(2-(5-methyl-2-(pyridin-3-ylamino)pyrimidin-4-yl)ethyl)phenyl)acetamide] the same measures were 34 nM and 169 nM.
For `Cc1cnc(Nc2ccc(OC3CCNCC3)cc2)nc1CCc1ccccc1CC(N)=O` [Compound 26, 2-(2-(2-(5-methyl-2-((4-(piperidin-4-yloxy)phenyl)amino)pyrimidin-4-yl)ethyl)phenyl)acetamide] the same measures were 24 nM and 83 nM.
Taken in the same sequence, the figures for `Cc1cnc(Nc2cnn(C)c2)nc1CCc1ccccc1CC(N)=O` [Compound 28, 2-(2-(2-(5-methyl-2-((1-methyl-^1H-pyrazol-4-yl)amino)pyrimidin-4-yl)ethyl)phenyl)acetamide] were 24 nM and 190 nM.
Regarding `Cc1cnc(Nc2ccc(C3(N)COC3)cc2)nc1CCc1ccccc1CC(N)=O` [Compound 31, 2-(2-(2-(2-(4-(3-aminooxetan-3-yl)phenylamino)-5-methylpyrimidin-4-yl)ethyl)phenyl)acetamide], the IC50 turned out to be 23 nM in experiment [1] and 107 nM in experiment [2].
For `Cc1cnc(Nc2cnn(C3CCNCC3)c2)nc1CCc1ccccc1CC(N)=O` [Compound 33, 2-(2-(2-(5-Methyl-2-((1-(piperidin-4-yl)-^1H-pyrazol-4-yl)amino)pyrimidin-4-yl)ethyl)phenyl)acetamide] the same measures were 28 nM and 1250 nM.
For `CC(N)c1ccc(Nc2ncc(Cl)c(CCc3ccccc3CC(N)=O)n2)cc1` (stereo not drawn) [Compound 37, 2-(2-(2-(2-(4-(1-aminoethyl)phenylamino)-5-chloropyrimidin-4-yl)ethyl)phenyl)acetamide] the same measures were 12 nM and 26 nM.

These data come from patent US20150225377A1, “VEGFR3 INHIBITORS” (CANCER THERAPEUTICS CRC PTY LIMITED, priority 2012, published 2015).
